For assay [1], the system named is Human airway smooth muscle (HASM) cells. The assay is described as follows: Thrombin-induced proliferation of human airway smooth muscle (HASM) cells, cell number after 48 h. The assay is classed as cell-based. Particulars: for IC50: Homo sapiens, read-out: HASM-Thr pIC50 (converted); for HASM- Thr pIC25 / HASM- Thr pIC75: two site model, thrombin-induced proliferation; for HASM- Thr pIC25: first phase (inhibition up to 50%); for HASM- Thr pIC75: second phase (inhibition up to 100%). How it is done:
Human airway smooth muscle (HASM) cells were cultured from macroscopically normal bronchi (0.5-2 cm diameter) obtained from lung resection or heart-lung transplant specimens provided by the Alfred Hospital (Melbourne) according to methods published in detail previously (Fernandes et al., 1999).
Approximately 0.1 g of smooth muscle was stripped from the wall of the bronchus for each cell culture. Dissected tissue was immersed in Dulbecco's modified Eagle's medium (DMEM) (Flow Laboratories, Scotland), supplemented with 100 U/mL penicillin G (CSL, Australia) and 100 ug/mL streptomycin (CSL, Australia). The tissue was rinsed in phosphate buffered saline (PBS; Oxoid, England) and the airway smooth muscle was chopped into 2 mm^3 pieces and digested for 2 hours in DMEM containing elastase (0.5 mg/mL: Worthington Biochemical, USA) followed by a 12 hour incubation in DMEM containing collagenase (1 mg/mL) (Worthington Biochemical, USA), at 37° C. with agitation.
The resulting cell suspension was centrifuged and washed three times in phosphate buffered saline (PBS). Following the last centrifugation step, the cells were resuspended in 25 mL of DMEM supplemented with L-glutamine (2 mM: Sigma, USA), penicillin G (100 U/mL), streptomycin (100 μg/mL), amphotericin B (2 μg/mL: Wellcome, UK) and heat-inactivated FCS (10% v/v: CSL, Australia) and seeded into 25 cm^2 culture flasks. The primary isolates were incubated for 7 to 14 days to reach confluence.
Cells were harvested weekly by 10 min exposure to trypsin (0.5%: CSL, Australia) and EDTA (1 mM in PBS: BDH, Australia) and passaged at a 1:3 ratio into 75 cm^2 flasks.
The activity of the compounds has been established in cell culture by exploring their effects on mitogen-induced increases in cell number. We investigated the effects of 2MEO and its analogues, 4NO and 4NOM, on the proliferation of HASM cells in response to the proliferative stimulus of either thrombin of basic fibroblast growth factor (bFGF). Cells were seeded onto 6-well plates at a density of 1.5×10^4 cells cm^2, made quiescent by removal of serum-containing media for 24 hours and then stimulated for 48 h with either thrombin (0.3 U/ml) or bFGF (300 pM). The test compounds were pre-incubated with HASM cells for 30 minutes before the addition of thrombin. At the end of the 48 hour incubation period, cells were detached from the culture plate by trypsin (0.5% w/v in PBS containing 1 mM EDTA), incubated for 5 minutes at ambient temperature in PBS containing 0.5% (w/v) trypan blue, washed twice (2% FCS in PBS), isolated by centrifugation (12,000×g, 5 min) and resuspended in 200 μl 2% FCS in PBS for counting in a haemocytometer chamber.
Data are expressed as a percentage of the cell number in vehicle treated wells and are presented as the mean and standard error of the mean.
The potency of the compounds in regulating thrombin-induced proliferation of human airway smooth muscle (HASM) was assessed in cells maintained in culture as described above. The potencies are presented as pIC50 values (Column A of Table 4) denoting the negative log of the concentration that reduces the proliferative response by 50%. […] When the single phase model was determined to be more appropriate, the values of pIC25 and pIC75 were not calculated or shown in the table.

The next assay has as its system Pulmonary fibroblasts. The assay is described as follows: bFGF-induced proliferation of human pulmonary fibroblasts. The assay is classed as cell-based. The note with it: inhibition of bFGF (300 pM)-induced proliferation, mean and SEM, minimum 3 experiments; 1 μM; * not defined. How it is done:
Samples of parenchyma from human lung transplant recipients were dissected away from the pleura, chopped into fragments of less than 1 mm^2 and allowed to adhere to plastic culture dishes in a minimal volume of DMEM containing serum (10%) and antibiotics (as used for HASM culture). After the tissue fragments had adhered to the base of the dish additional medium was added. Medium was changed twice weekly until an explant culture formed, at which time the tissue fragments were removed and the cells were passaged in a 1:3 split ratio by exposure to trypsin weekly to produce pulmonary fibroblast cultures.
Pulmonary fibroblasts were cultured in DMEM, serum-deprived for 24 h, in the presence or absence of the test compounds, and then stimulated with 300 pM bFGF for 48 h before harvest and counting of viable cells. An increase pulmonary fibroblast cell number was prevented by 4NOM over the concentration range of 1 to 1000 nM.
A range of the disclosed compounds was subsequently examined using the above assay system, and the results are summarized in Column E of Table 4. […] The proliferation of parenchymal fibroblasts is important in the development of pulmonary fibrosis.

The test system of assay [2] is type II airway epithelial cell line, A549. The assay is described as follows: Proliferation of A549 cells in response to 5% FCS. It counts as cell-based, human. The note with it: Homo sapiens. How it is done:
(§1) The effects of 4NO were evaluated in a number of non-smooth muscle cell types including the type II airway epithelial cell line, A549 (ATCC accession number ATCC CCL-185 Lung carcinoma human) (FIG. 2); the human breast tumour cell line, MCF7, (ATTC accession number ATCC HTB-22 breast adenocarcinoma, human) which expresses the estrogen receptor (FIG. 3); and in bovine aortic endothelial cells (BAEC) (FIG. 4).
(§2) The effects of test compounds were examined on proliferation of A549 cells in response to 5% fetal calf serum (FCS). Analogues were pre-incubated with A549 cells for 30 min before the addition of FCS. The incubation continued for 48 h before cell enumeration. Data are expressed as a percentage of the cell number in vehicle treated wells and are presented as the mean and standard error of the mean. Similarly the effects of 2MEO and 4NO on proliferation of MCF7 in response to 5% FCS or epidermal growth factor (EGF, 300 pM) were examined, as were the effects of 2MEO and 4NO on proliferation of BAEC in response to 5% FCS. The incubation parameters were the same as described above and results are presented as the mean and standard error of the mean.
(§3) This assay was also used to evaluate the ability of other compounds to inhibit the proliferation of non-smooth muscle cells MCF7 and A549 (described above) in response to 5% FCS. The results of this assay are presented in Table 4 (columns G and H respectively). The potency of the compounds was considerably less in inhibiting proliferation of these cell lines than it was for HASM. These observations support the contention that there are cell type-specific targets for the actions of these compounds. Such assays may also be adopted to examine the effect of other disclosed compounds on these cells or on other non-smooth muscle cells of interest.

In assay [3] the test system is GM-CSF production by Human Airway Smooth Muscle Cells. The assay is described as follows: Interleukin-1α-mediated GM-CSF production by HASM cells (ELISA). The note with it: inhibition of interleukin-1α (1 ng/ml)-mediated GM-CSF production; concentration not given; * not defined. It counts as cell-based.
A further assay has as its target T1, Estrogen Receptor (ER) (Rattus norvegicus, UniProt P06211).
T1 construct: using rat uterine cytosol as a source of ER; from tissue; host or cells: rat uterus, cytosol fraction (30000 x g supernatant)
T1 sequence (P06211 1-600): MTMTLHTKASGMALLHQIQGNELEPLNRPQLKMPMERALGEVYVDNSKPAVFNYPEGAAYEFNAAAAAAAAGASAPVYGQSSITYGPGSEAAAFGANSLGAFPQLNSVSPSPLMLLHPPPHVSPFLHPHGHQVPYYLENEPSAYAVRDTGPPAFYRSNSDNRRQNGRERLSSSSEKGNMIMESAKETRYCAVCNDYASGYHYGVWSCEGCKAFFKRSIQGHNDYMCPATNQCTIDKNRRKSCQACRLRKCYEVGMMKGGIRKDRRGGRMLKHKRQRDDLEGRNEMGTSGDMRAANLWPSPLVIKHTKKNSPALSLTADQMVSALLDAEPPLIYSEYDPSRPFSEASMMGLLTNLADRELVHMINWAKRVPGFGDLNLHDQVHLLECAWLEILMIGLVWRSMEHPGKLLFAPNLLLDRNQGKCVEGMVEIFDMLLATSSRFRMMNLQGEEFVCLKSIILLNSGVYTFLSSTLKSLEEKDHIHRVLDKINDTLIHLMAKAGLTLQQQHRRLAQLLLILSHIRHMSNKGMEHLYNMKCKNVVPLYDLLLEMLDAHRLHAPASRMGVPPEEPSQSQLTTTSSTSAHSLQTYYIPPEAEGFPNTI
The assay is described as follows: Estrogen receptor binding assay, 3H-estradiol displacement from rat uterine cytosol. Particulars: 3H-estradiol displacement, cytosolic preparations of rat uterus; pIC50 of 4.00 = inactive; read-out: ER-RLB pIC50 (converted). How it is done: Uteri (6-10 per batch) were isolated from Brown Norway rats (250-350g), washed free from blood in saline and homogenised in 10 mM Tris buffer (pH 7.4, 1.5 mM EDTA, 10% w/v glycerol, 1 mM phenylmethylsulfonylfluoride) using an Ultra Turrax homogeniser for 3 by 15 s bursts with intervals of 1 min on ice.
Nuclear material and cellular debris were removed by centrifugation at 750×g at 4° C. for 10 min (Sorvall RT7); the cytosol component was prepared by centrifugation at 30000×g for 120 min at 4° C. in a Beckman JM1 centrifuge. The cytosol was diluted to approximately 1 mg/ml protein (rat uterine extract) determined using the Bradford method (Biorad).
Separation of bound from free radioligand was achieved by the addition of 500 μL of dextran-coated charcoal (400 mg dextran clinical grade C and 2g of charcoal, Norit A in 100 mL of Tris buffer) and centrifugation at 4° C. in a Sorval RT7 at 2000×g for 10 min.

Assay [4] has as its system human breast tumour cell line, MCF7. The assay is described as follows: Proliferation of MCF7 cells in response to 5% FCS or EGF. The assay is classed as cell-based. The note with it: Homo sapiens, MCF7; proliferation in response to 5% FCS; pIC50 of 4.00 = inactive. How it is done:
as §1, §2, §3

Where [5] appears, read: negative log of the concentration that reduces the thrombin-induced proliferative response by 50%, pIC50 of 4.00 = inactive.
[6] abbreviates: A549, proliferation in response to 5% FCS, pIC50 of 4.00 = inactive, read-out: A549 PIC50 (converted).

Where two headings read alike, the source gives them in different places.

Consider `COc1cc2c(cc1O)/C(=N/Nc1ccc([N+](=O)[O-])cc1[N+](=O)[O-])C[C@@H]1[C@@H]2CC[C@]2(C)/C(=N/O)CC[C@@H]12` [CP-DM-3-119, 2-methoxy-6-(2,4-dinitrophenylhydrazono)estrone-17-oxime], for which the IC50 in assay [1] was 3.31 µM; in assay [2] (A549, read-out: A549 PIC50), 15.8 µM. Also, the “pFib - bFGF” value in the assay on Pulmonary fibroblasts came to 17 ± 14.
On to `COc1cc2c(cc1O)/C(=N/OCc1ccncc1)C[C@@H]1[C@@H]2CC[C@]2(C)/C(=N/O)CC[C@@H]12` [CP-DM-4-15, 2-methoxy-6-(4-pyridylmethyloxy)iminoestrone-17-oxime], for which the “HASM - GM-CSF” value in assay [3] is 34 ± 11*. Also, the IC50 was 12.6 µM at Estrogen Receptor (ER), 3.39 µM in assay [1] (setting [5]) and 10 µM in assay [4].
As to `COc1ccc(CON=C2CCC3C4CCc5cc(O)c(OC)cc5C4CCC23C)cc1` (stereo not shown) [CP-DM-4-34, 2-methoxyestrone-17-(4-methoxybenzyl)oxime], the “HASM - GM-CSF” value in assay [3] amounted to 29 ± 12. Further, the results for the IC50 (at Estrogen Receptor (ER); in assay [2] (setting [6]); in assay [4]) were 40.7 µM, 2.14 µM and 4.07 µM, respectively. Also, in assay [1], the “HASM- Thr pIC25” value is listed as 4.00. In addition, the “HASM- Thr pIC75” value in assay [1] is on record as 4.00.
Regarding `COc1cc2c(cc1O)CC[C@@H]1[C@@H]2CC[C@]2(C)/C(=N/OCc3cccc([N+](=O)[O-])c3)CC[C@@H]12` [CP-DM-3-104, 2-methoxyestrone-17-(3-nitrobenzyl)oxime], the IC50 in assay [1] (setting [5]) was 0.55 µM. For the same compound, in assay [1], the “HASM- Thr pIC25” value turned out to be 7.16 and the “HASM- Thr pIC75” value amounted to 5.02. This compound also had an IC50 in assay [4] of 8.51 µM.
As to `COc1cc2c(cc1O)/C(=N/OCc1ccc(SC(F)(F)F)cc1)C[C@@H]1[C@@H]2CC[C@]2(C)/C(=N/O)CC[C@@H]12` [CP-DM-4-69, 2-methoxy-6-(4-trifluoromethylthiobenzyloxy)iminoestrone-17-oxime], in assay [1], the “HASM- Thr pIC25” value came out at 4.00 and the “HASM- Thr pIC75” value is recorded as 4.00. Besides, in the assay with Pulmonary fibroblasts, the “pFib - bFGF” value is reported as 87 ± 13*.
With `C[C@]12CC[C@@H]3c4ccc(O)cc4CC[C@H]3[C@@H]1CC/C2=N\OCc1ccc([N+](=O)[O-])cc1` [CP-DM-3-101, estrone-17-(4-nitrobenzyl)oxime], the values for the IC50 (on Estrogen Receptor (ER); in assay [1] (setting [5]); in assay [4]) were 2.4 µM, 1.91 µM and 12.6 µM, respectively. Also, the “HASM- Thr pIC25” value in assay [1] is reported as 6.27. In addition, the “HASM- Thr pIC75” value in assay [1] was 5.06.
Take `COc1cc2c(cc1O)/C(=N/OCc1ccc(C#N)cc1)C[C@@H]1[C@@H]2CC[C@]2(C)/C(=N/O)CC[C@@H]12` [CP-DM-4-38, 6-(4-cyanobenzyloxy)imino-2-methoxyestrone-17-oxime]: in assay [1], the “HASM- Thr pIC25” value is listed as 4.00 and the “HASM- Thr pIC75” value was found to be 4.00. In addition, the “pFib - bFGF” value in the assay with Pulmonary fibroblasts is listed as 26 ± 26.
As to `COc1ccc(CO/N=C2\CC[C@H]3[C@@H]4CCc5cc(O)ccc5[C@H]4CC[C@]23C)cc1` [CP-DM-4-33, estrone-17-(4-methoxybenzyl)oxime], the IC50 at Estrogen Receptor (ER) was 0.11 µM; in assay [1] (setting [5]) it was 1.35 µM; in assay [2] (setting [6]), 9.12 µM; in assay [4] it was 3.16 µM. In addition, the “HASM- Thr pIC25” value in assay [1] is listed as 7.12. Further, in assay [1], the “HASM- Thr pIC75” value turned out to be 5.03.

Source of the values: US20070275935A1, “Estratriene Derivatives” (priority 2003, published 2007).
